Test results published in ChEMBL document CHEMBL1125358, “Effect of conformational mobility and hydrogen-bonding interactions on the selectivity of some guanidinoaryl-substituted mechanism-based inhibitors of trypsin-like serine proteases” (J Med Chem, 1992).
“And” between values parts separate entries of the source, which are not always exact repeats. Equal entries are not always repeated.

Legend:
[1] = target: T1, Urokinase-type plasminogen activator (Homo sapiens, UniProt P00749); assay: Compound was tested for the rate constant of deacylation against Urokinase-type plasminogen activator
Chymotrypsinogen A [2] = target: T2, Chymotrypsinogen A (Bos taurus, UniProt P00766); assay: Compound was tested for the rate constant of deacylation against alpha-chymotrypsin; kd was too fast to measure
Chymotrypsinogen A [3] = target: T2, Chymotrypsinogen A; assay: Compound was tested for its binding affinity against the enzyme alpha-chymotrypsin
Serine protease 1 [4] = target: T3, Serine protease 1 (Bos taurus, UniProt P00760); assay: Compound was tested for its binding affinity against the enzyme trypsin
T3 sequence (P00760 whole entry): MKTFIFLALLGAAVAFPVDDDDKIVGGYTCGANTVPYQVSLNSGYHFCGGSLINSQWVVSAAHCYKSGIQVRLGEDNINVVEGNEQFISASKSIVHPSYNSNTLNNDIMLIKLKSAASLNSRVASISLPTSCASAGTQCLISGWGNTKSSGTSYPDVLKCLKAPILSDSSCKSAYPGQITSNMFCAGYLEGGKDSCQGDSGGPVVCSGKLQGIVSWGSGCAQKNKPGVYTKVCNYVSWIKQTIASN

Serine protease 1 [5] = target: T3, Serine protease 1; assay: Compound was tested for the rate constant of deacylation against the enzyme trypsin
Trypsin II (Bos taurus) = target: T4, Trypsin II (Bos taurus) (UniProt Q29463); assay: Compound was tested for the rate constant of acylation against the enzyme trypsin
T4 sequence (whole entry): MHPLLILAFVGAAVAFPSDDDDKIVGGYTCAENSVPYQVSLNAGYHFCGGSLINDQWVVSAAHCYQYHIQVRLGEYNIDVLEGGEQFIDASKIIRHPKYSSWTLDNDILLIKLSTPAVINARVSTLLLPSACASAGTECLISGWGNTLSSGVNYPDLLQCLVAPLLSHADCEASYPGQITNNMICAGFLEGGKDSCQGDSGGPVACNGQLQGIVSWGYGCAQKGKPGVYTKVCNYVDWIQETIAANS

[6] = target: T1, Urokinase-type plasminogen activator; assay: Compound was tested for the rate constant of deacylation against the enzyme Urokinase-type plasminogen activator; kd was too fast to measure
[7] = target: T1, Urokinase-type plasminogen activator; assay: Compound was tested for its binding affinity against the enzyme Urokinase-type plasminogen activator
[8] = target: T1, Urokinase-type plasminogen activator
Description: Compound was tested for the rate constant of acylation against the enzyme Urokinase-type plasminogen activator

[9] = target: T5, Serine protease 1 (Bos taurus) (UniProt P00760)
T5 sequence (whole entry): T3 sequence (P00760 whole entry)

Plasminogen [10] = target: T6, Plasminogen (Homo sapiens, UniProt P00747); assay: Compound was tested for the rate constant of acylation against the enzyme plasmin
Plasminogen [11] = target: T6, Plasminogen; assay: Compound was tested for the rate constant for deacylation against plasmin; kd was too fast to measure
Plasminogen [12] = target: T6, Plasminogen; assay: Compound was tested for its binding affinity against the enzyme plasmin
Prothrombin [13] = target: T7, Prothrombin (Homo sapiens, UniProt P00734); assay: Compound was tested for the rate constant of acylation against the enzyme thrombin
Prothrombin [14] = target: T7, Prothrombin; assay: Compound was tested for the rate constant of deacylation against thrombin
Prothrombin [15] = target: T7, Prothrombin; assay: Compound was tested for its binding affinity against the enzyme thrombin
[16] = target: T1, Urokinase-type plasminogen activator; assay: Compound was tested for the rate constant of deacylation against the enzyme Urokinase-type plasminogen activator
[17] = target: Tissue-type plasminogen activator (Homo sapiens, UniProt P00750); assay: Compound was tested for its binding affinity against the enzyme Tissue plasminogen activator
[18] = target: T1, Urokinase-type plasminogen activator; assay: Compound was tested for the rate constant of deacylation against Urokinase-type plasminogen activator

T6 sequence (P00747 97-580 limits assumed): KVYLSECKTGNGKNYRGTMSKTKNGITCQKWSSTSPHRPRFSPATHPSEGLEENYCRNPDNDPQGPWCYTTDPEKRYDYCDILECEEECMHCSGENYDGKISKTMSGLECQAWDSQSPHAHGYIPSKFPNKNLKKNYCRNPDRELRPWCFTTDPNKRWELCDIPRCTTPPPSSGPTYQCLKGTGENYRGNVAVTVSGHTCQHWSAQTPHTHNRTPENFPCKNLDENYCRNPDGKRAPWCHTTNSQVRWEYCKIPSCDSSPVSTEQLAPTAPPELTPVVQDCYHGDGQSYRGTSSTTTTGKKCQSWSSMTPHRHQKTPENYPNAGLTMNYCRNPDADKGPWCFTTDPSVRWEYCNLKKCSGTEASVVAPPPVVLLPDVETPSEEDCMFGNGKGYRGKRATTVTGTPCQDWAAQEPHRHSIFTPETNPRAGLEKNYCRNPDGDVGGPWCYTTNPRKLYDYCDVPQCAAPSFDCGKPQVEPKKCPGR
T6 sequence (P00747 581-810 limits assumed): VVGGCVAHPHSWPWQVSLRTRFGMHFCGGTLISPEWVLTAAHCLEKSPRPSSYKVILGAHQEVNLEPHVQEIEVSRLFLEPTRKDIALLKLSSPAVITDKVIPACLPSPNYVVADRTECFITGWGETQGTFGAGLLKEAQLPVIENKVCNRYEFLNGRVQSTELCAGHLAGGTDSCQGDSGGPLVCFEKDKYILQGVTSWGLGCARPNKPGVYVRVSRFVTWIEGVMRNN
Tissue-type plasminogen activator, sequence (P00750 whole entry): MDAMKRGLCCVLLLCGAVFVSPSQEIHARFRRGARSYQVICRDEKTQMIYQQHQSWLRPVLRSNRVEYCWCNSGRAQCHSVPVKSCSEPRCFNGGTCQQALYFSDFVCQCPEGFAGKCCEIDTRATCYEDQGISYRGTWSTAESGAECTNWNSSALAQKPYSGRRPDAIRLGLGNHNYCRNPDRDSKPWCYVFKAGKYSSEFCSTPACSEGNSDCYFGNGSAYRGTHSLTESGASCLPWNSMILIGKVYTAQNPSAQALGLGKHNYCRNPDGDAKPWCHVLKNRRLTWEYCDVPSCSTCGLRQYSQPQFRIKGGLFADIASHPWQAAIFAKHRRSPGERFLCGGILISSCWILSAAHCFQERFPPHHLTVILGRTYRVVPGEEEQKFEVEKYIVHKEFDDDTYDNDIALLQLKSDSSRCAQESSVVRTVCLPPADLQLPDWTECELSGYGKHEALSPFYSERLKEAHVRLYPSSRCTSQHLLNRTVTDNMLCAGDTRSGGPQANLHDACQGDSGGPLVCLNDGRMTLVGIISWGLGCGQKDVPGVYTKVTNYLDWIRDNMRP

Row | Compound | Kd [1] [s⁻¹] | Ki (Chymotrypsinogen A [3]) [µM] | Ki (Serine protease 1 [4]) | Kd (Serine protease 1 [5]) [s⁻¹] | Ki [7] [µM] | Ka [8] [min⁻¹] | Ka [9] [min⁻¹] | Ka (Plasminogen [10]) [min⁻¹] | Ki (Plasminogen [12]) [µM] | Ka (Prothrombin [13]) [min⁻¹] | Kd (Prothrombin [14]) [s⁻¹] | Ki (Prothrombin [15]) [µM] | Kd [16] [s⁻¹] | further results
1 | C=C1CC(c2ccc(NC(=N)N)cc2)C(NC(=O)c2ccccc2)C(=O)O1 (centres undefined) | 3.3e-05 | 0.46 | 10 µM | 0.00025 | – | – | – | – | – | – | – | – | – | Kd (Chymotrypsinogen A [2]): Fast; Ka (Trypsin II (Bos taurus)): 10.2 min⁻¹
2 | N=C(N)Nc1ccc(C2CC(=O)O/C(=C\I)C2)cc1 (centres undefined) | – | – | 4.28 µM | 0.00033 | 7.83 | 2.61 | 0.54 | – | – | – | – | – | – | Kd [6]: Fast

More lines, main results first:

Row | Kd [1] [s⁻¹] | Ki (Chymotrypsinogen A [3]) [µM] | Ki (Serine protease 1 [4]) | Kd (Serine protease 1 [5]) [s⁻¹] | Ki [7] [µM] | Ka [8] [min⁻¹] | Ka [9] [min⁻¹] | Ka (Plasminogen [10]) [min⁻¹] | Ki (Plasminogen [12]) [µM] | Ka (Prothrombin [13]) [min⁻¹] | Kd (Prothrombin [14]) [s⁻¹] | Ki (Prothrombin [15]) [µM] | Kd [16] [s⁻¹] | Compound | further results
3 | – | – | – | – | 0.35 | 9.8 | – | 57 | 466 | 5.58 | 0.0001 | 37.9 | 0.000733 | C=C1CCC(c2ccc(CNC(=N)N)cc2)C(=O)O1 (centres undefined) | Kd (Plasminogen [11]): Fast
4 | 0.00015 | – | 9.4 µM | 3.3e-05 | 0.12 | – | – | – | – | – | – | – | – | C=C1CC(c2ccc(NC(=N)N)cc2)CC(=O)O1 (centres undefined) | –
5 | – | – | 0.08 µM | – | – | 7.56 | 18.4 | 10.2 | 1.19 | 27.2 | 0.000217 | 14.8 | – | N=C(N)NCc1ccc(C2CC/C(=C/I)OC2=O)cc1 (centres undefined) | Ki [17]: 0.12 µM
6 | – | 0.17 | 0.67 µM and 2.76 µM | – | 18.7 | – | – | – | – | – | – | – | 1.33e-05 | N=C(N)Nc1ccc(C2C/C(=C/I)OC(=O)C2NC(=O)c2ccccc2)cc1 (centres undefined) | Kd [18]: 1.3e-05 s⁻¹
